The source of these data is patent publication US12668576B2, “Pyrazolamide derivative, preparation method therefor, and application thereof” (SHENZHEN ZHONGGE BIOLOGICAL TECHNOLOGY CO., LTD., priority 2021, dated 2026).

In this assay the target is T1, EP4 receptor (Homo sapiens, UniProt P35408).
T1 construct: expressed in transfected cells; host or cells: Flp-In CHO cells (Flpin-CHO-EP4)
The assay is described as follows: Antagonist activity against EP4 receptor by cAMP assay. It counts as cell-based. Particulars: Flpin-CHO-EP4 cells, PGE2 stimulation, cAMP readout; starting concentration 5 μM, dilution factor 4. As for the experimental part: Eu-CAMP tracer (1/50) was diluted with a lysis buffer and 10 μL was added to per well of the detection plate. Ulight-anti-CAMP (1/150) was diluted with the lysis buffer and 10 μL was added to per well of the detection plate, and incubated at room temperature for 1 h.
Background: Cyclic AMP is a second messenger, typically raised through Gs and lowered through Gi signalling.

Broadly, the IC50 is the concentration needed to halve the response being measured.

T1 sequence (P35408 whole entry): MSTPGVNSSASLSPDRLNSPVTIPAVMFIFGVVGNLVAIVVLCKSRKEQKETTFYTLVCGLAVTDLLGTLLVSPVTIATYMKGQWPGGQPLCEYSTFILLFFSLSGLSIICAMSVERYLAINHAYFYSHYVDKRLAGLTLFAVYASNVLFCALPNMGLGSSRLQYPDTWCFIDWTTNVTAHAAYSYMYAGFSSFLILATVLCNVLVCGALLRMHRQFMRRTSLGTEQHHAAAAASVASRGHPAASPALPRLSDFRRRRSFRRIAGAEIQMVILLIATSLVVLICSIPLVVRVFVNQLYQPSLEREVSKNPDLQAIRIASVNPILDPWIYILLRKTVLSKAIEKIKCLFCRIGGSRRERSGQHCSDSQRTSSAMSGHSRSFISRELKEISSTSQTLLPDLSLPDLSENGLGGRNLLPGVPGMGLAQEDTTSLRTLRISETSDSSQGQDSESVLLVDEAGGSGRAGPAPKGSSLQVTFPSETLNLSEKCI

`C[C@H](NC(=O)c1c(C(F)F)nn(C)c1Oc1cccc(S(F)(F)(F)(F)F)c1)c1ccc(C(=O)O)cc1` [Example 1, 4-(1-(3-(difluoromethyl)-1-methyl-5-(3-(pentafluorothio)phenoxy)-1H-pyrazole-4-carboxamido)ethyl)benzoic acid] gave an IC50 of 6.59 nM.
